From patent US20120058894A1, “SYNERGISTIC COMBINATIONS WHICH ARE COMPATIBLE WITH CULTIVATED PLANTS AND WHICH COMPRISE HERBICIDES SELECTED FROM THE GROUP CONSISTING OF BENZOYLCYCLOHEXANEDIONES FOR USE IN RICE CROPS” (Bayer CropScience AG, priority 2007, published 2012)

Tests used:
Type in all cases: in vivo
[1] = test system: ORYZA (Oryza sativa); assay: Post-emergence greenhouse test, damage to cultivated plant rice; conditions: for Damage ORYZA: dosage 300 g a.i./ha
Experimental: (§1) Seeds or root pieces of harmful mono- and dicotyledonous plants are placed in sandy clay soil in pots, covered with earth and secured in a greenhouse under good growing conditions (temperature, air humidity, water supply). Approximately three weeks after sowing, the plants are treated at the 2- to 3-leaf stage with the herbicidal active substances or the combinations according to the invention. The combinations according to the invention formulated as wettable powders or as emulsion concentrates are sprayed, in spray application, on to the green plant parts in different dosages with a water application rate of 600 to 800 I/ha (corrected). Immediately up to a few days after application, the test receptacles accumulate water over the ground surface by up to 30 mm. With the water application (submerged application), on the other hand, the ground in the closed test receptacle is already covered with the paddy water up to 30 mm at the time of the application. The formulated active substances are here added directly to the paddy water. After an exposure time of the test plants in the greenhouse of an additional 3 to 4 weeks under optimum growing conditions, the effect of the preparations is evaluated visually in comparison with untreated controls. […] In this connection, actions of the combinations according to the invention which exceed the formal sum of the actions of the herbicides when applied individually are frequently observed. The values observed for the tests show, with suitable low dosages, an action of the combinations which lie above the expected values according to Colby.
(§2) When the combinations according to the invention are used, herbicidal actions on a harmful plant species which exceed the formal sum of the actions of the herbicides present when applied singly are frequently observed. Alternatively, it can in many cases be observed that a lower application rate for the herbicidal combination is needed in order to achieve, in comparison with the individual preparations, the same action with a harmful plant species. Such improvements in action or improvements in effectiveness or economies in application rate are a strong indication of a synergistic effect. If the observed activity values already exceed the formal sum of the values for the tests with individual applications, then they likewise exceed the expected value according to Colby, which is calculated according to the following formula and is likewise regarded as an indication of synergy (cf. S. R. Colby in Weeds, 15 (1967), pp. 20 to 22):
(§3) In this connection: • A, B=action of the component A or B in percent at a dosage of a or b grams ai/ha, • E=expected value in % at a dosage of a+b grams ai/ha.
(§4) The values observed for the test examples mentioned below are greater than (harmful plants) or lower than (cultivated plants) the expected values according to Colby.

[2] = test system: BRAPL (Brachiaria platyphylla); assay: Post-emergence weed action, greenhouse pot test
Experimental: as §1, §2, §3, §4

[3] = test system: SCPSS (Scirpus juncoides); assay: Post-emergence weed action, greenhouse pot test
Experimental: as §1, §2, §3, §4

[4] = test system: LEFCH (Leptochloa chinensis); assay: Post-emergence weed action, greenhouse pot test
Experimental: as §1, §2, §3, §4

[5] = test system: CYPES (Cyperus serotinus); assay: Post-emergence weed action, greenhouse pot test; conditions: Table 4, post-emergence, dosage 100 g a.i./ha
Experimental: as §1, §2, §3, §4

[6] = test system: ECHCG (Echinochloa crus galli); assay: Post-emergence weed action, greenhouse pot test; conditions: Table 4, post-emergence, dosage 100 g a.i./ha
Experimental: as §1, §2, §3, §4

[7] = Table 2, post-emergence, dosage 12.5 g a.i./ha
[8] = Table 5, post-emergence, dosage 62.5 g a.i./ha
[9] = Table 5, post-emergence, dosage 12.5 g a.i./ha
[10] = Table 3, post-emergence, dosage 6.25 g a.i./ha
[11] = Table 6, post-emergence, dosage 6.25 g a.i./ha

CS(=O)(=O)c1ccc(C(=O)C2C(=O)CCCC2=O)c(Cl)c1COCC(F)(F)F [Compound A1, tembotrione]
Action/Damage ORYZA ([1]; in vivo): 10%
Action/Damage BRAPL [2, 7]: 20%
Action against SCPSS ([3]; Table 7, post-emergence, dosage 12.5 g a.i./ha): 40%
Action against SCPSS ([3]; Table 8, post-emergence, dosage 12.5 g a.i./ha): 40%
Action against SCPSS ([3]; Table 9, post-emergence, dosage 12.5 g a.i./ha): 40%
Action against SCPSS ([3]; Table 10, post-emergence, dosage 12.5 g a.i./ha): 40%

CS(=O)(=O)c1ccc(C(=O)C2C(=O)CCCC2=O)c(Cl)c1COCC1CCCO1 (stereo not shown) [Compound A2, tefuryltrione]
Action/Damage ORYZA [1, 8]: 10%
Action/Damage BRAPL [2, 8]: 25%
Action against SCPSS ([3]; Table 7, post-emergence, dosage 37.5 g a.i./ha): 50%

CS(=O)(=O)c1ccc(C(=O)C2C(=O)CCCC2=O)c(Cl)c1 [Compound B1, sulcotrione]
Action/Damage ORYZA [1, 7]: 5%
Action/Damage ORYZA [1, 9]: 5%
Action/Damage BRAPL [2, 7]: 0%
Action/Damage BRAPL [2, 9]: 0%

CCCCOC(=O)[C@@H](C)Oc1ccc(Oc2ccc(C#N)cc2F)cc1 [Compound B3, cyhalofop-butyl]
Action/Damage ORYZA [1, 10]: 0%
Action/Damage ORYZA [1, 11]: 0%
Action/Damage BRAPL [2, 10]: 0%
Action/Damage LEFCH [4, 11]: 0%

CS(=O)(=O)c1ccc(C(=O)C2=C(Sc3ccccc3)C3CCC(C3)C2=O)c(Cl)c1 (stereo not shown) [Compound B5, benzobicyclon]
Action against SCPSS ([3]; Table 8, post-emergence, dosage 37.5 g a.i./ha): 60%

Cc1ccc(S(=O)(=O)Oc2c(C(=O)c3ccc(Cl)cc3Cl)c(C)nn2C)cc1 [Compound B6, pyrazolynate]
Action against SCPSS ([3]; Table 9, post-emergence, dosage 250 g a.i./ha): 30%

CC(C)(NC(=O)C(Br)C(C)(C)C)c1ccccc1 (stereo not shown) [Compound B7, bromobutide]
Action against SCPSS ([3]; Table 10, post-emergence, dosage 125 g a.i./ha): 70%

CCOC(=O)C1=NOC(c2ccccc2)(c2ccccc2)C1 [Compound C1, isoxadifen-ethyl]
Damage ORYZA ([1]; Table 11, post-emergence): 0%
Damage ORYZA ([1]; Table 12, post-emergence): 0%
Wirkung gegen CYPES [5]: 0%
Wirkung gegen ECHCG [6]: 0%
Wirkung gegen LEFCH ([4]; Table 4, post-emergence, dosage 100 g a.i./ha): 0%
